How the values were obtained:
Assay type in all cases: cell-based, human
MMP-9 [1] = test: Fluorescence conjugated gelatin digestion assay on conditioned medium of PMA-stimulated HT1080 cells
Experimental: HT1080 cells grown in 24-well plates were treated with different concentrations of CGlc and conditioned media were collected by centrifugation at 13 000×g following PMA (10 ng/mL) treatment. Enzyme activities of conditioned media in 50 mmol/l Tris-HCl buffer (pH 7.5), 0.15 mol/l NaCl, 10 mmol/l CaCl2, 0.02% NaN3 (TNC buffer) containing 0.05% Brij 35 were determined using fluorescence conjugated gelatin peptide (Collagen Technology Corporation, Tokyo, Japan) as the substrate.
Fluoropeptides were incubated with conditioned media at 37° C. for 20 h, and the reaction was terminated by addition of 3% acetic acid. Fluorescence intensity was measured at 495 nm (excitation) and 520 nm (emission) with a GENios® fluorescence microplate reader (Tecan Austria GmbH, Austria).
The MMP-9 inhibitory effect of CGlC on MMP-9 activity stimulated by PMA in HT1080 cells was further confirmed using more sensitive fluorescence conjugated gelatin digestion assay which use fluorescence conjugated gelatin peptides as the substrate for MMP-9. The amount of active gelatinases (MMP-9/-2) present in CGIc treated stimulated conditioned medium obtained from incubation of HT1080 cells was assesssed from the resulting fluorescence activity. […] Therefore it can be presumed that difference in fluorescence intensities were mainly due to activity of MMP-9. […]

HT1080 cells = test: MTT cell viability (cytotoxicity) assay; details: even at 1 mg/mL, 24 h, in the presence and absence of FBS
Experimental: Equal number of HT1080 cells (4000 cells per well) cultured in 96-well plates with serum and serum free media were treated with various concentrations of CGlc for 24 h. Cell viability was then evaluated with the 3-(4,5-dimethyl[…])-2,5-diphenyltetrazolium bromide (MTT) spectrophotometrically (GENios® microplate reader, Tecan Austria GmbH, Austria) which measures conversion of tetrazolium salt in to blue formazan by viable cells.

AP-1 = AP-1 binding site luciferase reporter assay in transfected HT1080 cells; details: 500 μg/mL CGlc, PMA-stimulated transfected HT1080 cells
Experimental: (§1) HT1080 cells cultured in 10 cm culture dishes were transiently transfected with MMP-9 promoter containing pGL3 luciferase reporter vector (Promega, Madison, Wis.) or AP-1 binding site containing luciferase reporter plasmid (Colontech, Palo Alto, […]) by Lipofectamine™ 2000™ reagent (Invitrogen). Beta-galactosidase expression vector co-transfected with the reporter vector to serve as an internal control of transfection efficiency. Transfected cells sub-cultured in 24-well plates were treated with different concentrations of CGlc. Following stimulation with PMA cells were cultured for 24 h. Cells were washed once with cold PBS and lysed with 200 μl/well lysis buffer (25 mM Tri-HCl, pH 8.0, containing 2 mM DDT and 1% Triton-X 100). Aliquots of cell lysate and luciferase substrate (Promega) were mixed in equal amounts in a 96-well plate and luminescence intensity was measured with a luminescence microplate reader (Tecan Austria GmbH, Austria). Beta-galactosidase activity was measured with ONPG buffer. The level of reporter gene expression was determined as a ratio, compared with cells stimulated by PMA (10 ng/mL) alone and represented as relative luciferase activity.
(§2) Transfection efficiency was determined by X-Gal staining method. Briefly, transfected cells were fixed with 0.5% glutaraldehyde and stained with X-Gal solution containing 20 mM K3Fe(CN)6, K4Fe(CN)6 and 1 mM MgCl2. […]

MMP-9 [2] = test: Gelatin zymography of MMP-9 gelatinolytic activity in conditioned medium of PMA-stimulated HT1080 cells; details: 500 μg/mL CGlc, HT1080 cells stimulated with PMA 10 ng/mL
Experimental: MMP-9 activity in HT1080 cells was assayed by gelatin zymography as described previously. For this, approximately 2×10^5 cells/mL HT1080 cells in serum free DMEM medium were seeded in 24-well plates and pre-treated with different concentrations of CGlc for 1 h. MMP-9 expression was stimulated by treatment of PMA (10 ng/mL) and cells were cultured for 48 h. Cell conditioned medium was subjected to substrate gel electrophoresis. Similar amount of protein containing conditioned media were applied without reduction to a 10% (w/v) polyacrylamide gel impregnated with 1 mg/mL gelatin. After electrophoresis, gel was washed in 50 mM Tris-HCl (pH 7.5) containing 2.5% Triton X-100 at room temperature and incubated overnight at 37° C. in zymography developing buffer containing 10 mM CaCI2, 50 mM Tris-HCl, and 150 mM NaCl. The gel was then stained with a […]. In this assay clear zones against the blue background indicate the presence of gelatinolytic activity.
The image of the gel was recorded using Fujifilm Image Reader LAS-3000 software in Science Image System, LAS 3000 (Fujifilm Life Science, Tokyo, Japan). The gelatinolytic activities were quantified using Multi Gauge V3.0 software.
To analyze the inhibition of MMP-9 mediated gelatinolytic activity in conditioned medium stimulated with PMA, we utilized human fibrosarcoma cell line, HT1080. […]

MMP-9 promoter = MMP-9 promoter luciferase reporter assay in transfected HT1080 cells; details: PMA-stimulated transfected HT1080 cells
Experimental: as §1, §2

Carboxylated glucosamine [CGlc]
reduction of fluorescence intensity (MMP-9 [1]; 100 μg/mL CGlc): about 50%
decrease of relative fluorescence activity (MMP-9 [1]; 500 μg/mL CGlc): up to 66%
toxicity on HT1080 cells (MTT viability) (HT1080 cells): did not show any toxicity
suppression of AP-1 reporter activity (AP-1): 2-3 fold
inhibition of MMP-9 lead gelatinolytic activity (MMP-9 [2]): approximately 60%
inhibition of MMP-9-luciferase reporter gene activity (MMP-9 promoter; 100 μg/mL CGlc): Approximately 50%
inhibition of MMP-9-luciferase reporter gene activity (MMP-9 promoter; 500 μg/mL CGlc): approximately 3 fold

From US20090240046A1, “CARBOXYLATED GLUCOSAMINE COMPOUNDS FOR INHIBITING THE ACTIVATION AND EXPRESSION OF MATRIX METALLOPROTEINASE-9 IN HUMAN FIBROSARCOMA CELLS AND MATRIX METALLOPROTEINASE-9 INHIBITORS CONTAINING THE SAME” (priority 2006, published 2009)
